Where two headings read alike, the source gives them in different places.
Assays:
[1] = test system: Leishmania donovani axenic amastigote parasites; assay: Leishmania donovani axenic amastigote proliferation assay (Cell TiterGlo luminescence, 2 day incubation); assay type: cell-based; conditions: Leishmania donovani, read-out: L. donovani amastigotes EC50
[2] = test system: L. donovani HU3 strain in mouse peritoneal macrophages; assay: Assay for proliferation of Leishmania parasites in infected mouse peritoneal macrophages (SybrGreen staining, high-content imaging, 5 days); assay type: cell-based, Leishmania donovani; conditions: Leishmania donovani, Peritoneal macrophage, L. donovani in mouse peritoneal macrophages, read-out: L. donovani Macrophage EC50
[3] = test system: Trypanosoma brucei Lister 427 strain, bloodstream form; assay: Assay for proliferation of kinetoplastid parasite Trypanosoma brucei (Cell Titer Glo, 48 hours); assay type: cell-based; conditions: Trypanosoma brucei
Method in brief: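 Bloodstream-form T. brucei Lister 427 in HMI-9 medium was exposed to compound (DMSO vehicle) for 48 hours at 37° C, 5% CO2. Parasite growth was read as ATP by CellTiter-Glo luminescence, with EC50 calculated from percent inhibition.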

[4] = test system: Trypanosoma cruzi amastigotes (Tulahuen strain expressing Lac-Z) cultured in 3T3 fibroblast cells; assay: microbe, parasite or virus in culture; assay type: cell-based; conditions: Trypanosoma cruzi, TULAHUEN, Fibroblast, T. cruzi amastigotes in 3T3 fibroblast cells, read-out: T cruzi EC50
[5] = axenic amastigotes, inhibition of proliferation
[6] = T. brucei Lister 427 bloodstream form, inhibition of proliferation, read-out: T. brucei EC50
[7] = T. brucei Lister 427 bloodstream form, read-out: T. brucei EC50

| SMILES | EC50 [1, 5] [nM] | EC50 ([2]; inhibition of proliferation) [nM] | EC50 [3, 6] [µM] | EC50 ([4]; inhibition of proliferation) [nM] | EC50 ([1]; L. donovani axenic amastigotes) [nM] | EC50 [2] [nM] | EC50 ([3]; read-out: T. brucei EC50 (μM)) [µM] | EC50 [4] [nM] | EC50 [3, 7] [µM] |
| --- | --- | --- | --- | --- | --- | --- | --- | --- | --- |
| CC1(C(=O)Nc2cnc3nc(-c4cc(NC(=O)N5CCCC5)ccc4F)cn3c2)CC(F)(F)C1 [Compound 146] | 1050 | 7180 | 0.236 | > 20000 |  |  |  |  |  |
| CC(C)OC(=O)Nc1cnc2nc(-c3cc(NC(=O)N4CC[C@@H](O)C4)ccc3Cl)cn2c1 [Compound 286] | > 19700 | > 50000 | 29.7 | > 20000 |  |  |  |  |  |
| Cc1nc(C)c(C(=O)Nc2ccc(F)c(-c3cn4cc(C(F)F)cnc4n3)c2)o1 [Compound 208] | 134 | 445 | 0.108 | 100 |  |  |  |  |  |
| CC(C)OC(=O)Nc1cnc2nc(-c3cc(N4C(=O)c5ccccc5C4=O)ccc3Cl)cn2c1 [Compound 530, isopropyl (2-(2-chloro-5-(1,3-dioxoisoindolin-2-yl)phenyl)imidazo[1,2-a]pyrimidin-6-yl)carbamate] |  |  |  |  | > 13100 | > 50000 | > 50 | > 20000 |  |
| Cc1csc(C(=O)Nc2cnc3nc(-c4cc(NC(=O)c5oc(C)nc5C)ccc4F)cn3c2)n1 [Compound 148] | 51 | 222 | 0.061 | 90 |  |  |  |  |  |
| CC(C)OC(=O)Nc1cnc2nc(-c3cc(NC(=O)c4ccnn4C)ccc3F)cn2c1 [Compound 74] | 608 | 3890 | 0.49 | 608 |  |  |  |  |  |
| CC(C)OC(=O)Nc1cnc2nc(-c3cc(NC(=O)N(C)c4nccn4C)ccc3Cl)cn2c1 [Compound 256] | > 25000 | > 50000 | 31.6 | > 20000 |  |  |  |  |  |
| CC(C)OC(=O)Nc1cnc2nc(-c3cc(NC(=O)N4CC[C@@H](F)C4)ccc3Cl)cn2c1 [Compound 267] | 485 | 1800 | 0.116 | 1920 |  |  |  |  |  |
| O=C(Nc1cnc2nc(-c3cc(NC(=O)N4CCCC4)ccc3F)cn2c1)C1CC1 [Compound 134] | 267 | 8360 | 0.073 | 5200 |  |  |  |  |  |
| O=C(Nc1ccc(F)c(-c2cn3cc(C(F)(F)F)cnc3n2)c1)N1CC(F)(F)C1 [Compound 300] | 90 | 397 | 0.155 | 148 |  |  |  |  |  |
| Cc1nc(C(=O)Nc2ccc(Cl)c(-c3cn4cc(NC(=O)OC(C)C)cnc4n3)c2)no1 [Compound 528] |  |  |  |  | > 25000 | 8940 |  | > 20000 | 6.96 |
| O=C(Nc1ccc(F)c(-c2cn3cc(-c4ccccc4)cnc3n2)c1)N1CC(F)C1 [Compound 317, 3-fluoro-N-(4-fluoro-3-(6-phenylimidazo[1,2-a]pyrimidin-2-yl)phenyl)azetidine-1-carboxamide] | 14 | 38 | 0.012 | 12 |  |  |  |  |  |
| O=C1CCC(C(=O)Nc2ccc(F)c(-c3cn4cc(C5CC5)cnc4n3)c2)C1 (centres unmarked) [Compound 599] |  |  |  |  | 2690 | 639 |  | 3930 | 3.3 |
| Cc1nc(C)c(C(=O)Nc2ccc(F)c(-c3cn4cc(NC5=NC(C)CO5)cnc4n3)c2)o1 (centres unmarked) [Compound 524] |  |  |  |  | 3510 | 9540 |  | 12600 | 1 |
| Cc1nc(C)c(C(=O)Nc2ccc(Cl)c(-c3cn4cc(NC(=O)OC(C)C)cnc4n3)c2)o1 [Compound 45] | 226 | 452 | 0.522 | 400 |  |  |  |  |  |
| Cc1nc(C)c(C(=O)Nc2ccc(F)c(-c3cn4cc(NC5=NCC(C)O5)cnc4n3)c2)o1 (centres unmarked) [Compound 504] |  |  |  |  | 2970 | 5510 |  | 10700 | 0.976 |
| Cc1nc(C)c(C(=O)Nc2ccc(F)c(-c3cn4cc(-c5ccc[nH]5)cnc4n3)c2)o1 [Compound 573] |  |  |  |  | 155 | 168 |  | 462 | 0.107 |
| Cc1nc(C)c(C(=O)Nc2ccc(F)c(-c3cn4cc([Si](C)(C)C)cnc4n3)c2)o1 [Compound 549, N-(4-fluoro-3-(6-(trimethylsilyl)imidazo[1,2-a]pyrimidin-2-yl)phenyl)-2,4-dimethyloxazole-5-carboxamide] |  |  |  |  | 133 | 448 |  | 63 | 0.117 |
| Cc1nc(C)c(C(=O)Nc2ccc(F)c(-c3cn4cc(NC(=O)OC(C)C)cnc4n3)c2)s1 [Compound 68] | 14200 | 39200 | 14.2 | 3600 |  |  |  |  |  |
| Cc1cnc(-c2cnc3nc(-c4cc(NC(=O)c5oc(C)nc5C)ccc4F)cn3c2)cn1 [Compound 452] |  |  |  |  | 19 | 61 |  | 45 | 0.097 |
| Cc1ncc(C(=O)Nc2ccc(F)c(-c3cn4cc(C(F)(F)F)cnc4n3)c2)o1 [Compound 201] | 58 | 208 | 0.46 | 126 |  |  |  |  |  |

| SMILES | EC50 [1, 5] [nM] | EC50 ([2]; inhibition of proliferation) [nM] | EC50 [3, 6] [µM] | EC50 ([4]; inhibition of proliferation) [nM] | EC50 ([1]; L. donovani axenic amastigotes) [nM] | EC50 [2] [nM] | EC50 ([3]; read-out: T. brucei EC50 (μM)) [µM] | EC50 [4] [nM] | EC50 [3, 7] [µM] |
| --- | --- | --- | --- | --- | --- | --- | --- | --- | --- |
| Cc1ccc(-c2cnc3nc(-c4cc(NC(=O)c5oc(C)nc5C)ccc4F)cn3c2)nc1 [Compound 445] |  |  |  |  | 12 | 688 |  | 14 | 0.031 |
| Cc1nc(C)c(C(=O)Nc2ccc(F)c(-c3cn4cc(NCC(C)(C)C)cnc4n3)c2)o1 [Compound 465] |  |  |  |  | 329 | 289 |  | 146 | 0.153 |
| Cc1ncc(C(=O)Nc2cnc3nc(-c4cc(NC(=O)c5oc(C)nc5C)ccc4F)cn3c2)[nH]1 [Compound 190] | 775 | 8480 | 0.244 | 12200 |  |  |  |  |  |
| CNc1ccc(-c2cnc3nc(-c4cc(NC(=O)c5oc(C)nc5C)ccc4F)cn3c2)nc1 [Compound 432] |  |  |  |  | 12 | 33 |  | 21 | 0.018 |
| Cc1nc(C)c(C(=O)Nc2ccc(F)c(-c3cn4cc(NC(=O)C5CCCOC5)cnc4n3)c2)o1 (centres unmarked) [Compound 154] | 997 | 2530 | 1.48 | 6180 |  |  |  |  |  |
| O=C(Nc1cnc2nc(-c3cc(NC(=O)N4CCCC4)ccc3F)cn2c1)[C@H]1CCCO1 [Compound 126] | 434 | 4050 | 0.126 | 4860 |  |  |  |  |  |
| Cc1nc(C)c(C(=O)Nc2ccc(F)c(-c3cn4cc(-c5ncccc5C)cnc4n3)c2)o1 [Compound 453] |  |  |  |  | 17 | 23 |  | 15 | 0.021 |
| COc1cccc(-c2cnc3nc(-c4cc(NC(=O)c5oc(C)nc5C)ccc4F)cn3c2)n1 [Compound 458] |  |  |  |  | 75 | 513 |  | 43 | 0.12 |
| Cc1nc(C)c(C(=O)Nc2ccc(F)c(-c3cn4cc(NC(=O)OCC(C)C)cnc4n3)c2)o1 [Compound 308] | 211 | 338 | 0.131 | 329 |  |  |  |  |  |
| CC(C)OC(=O)Nc1cnc2nc(-c3cc(NC4=NC(C)(C)CO4)ccc3F)cn2c1 [Compound 500] |  |  |  |  | > 25000 | > 17600 |  | > 20000 | > 50 |
| CCOC(=O)Nc1cnc2nc(-c3cc(NC(=O)c4oc(C)nc4C)ccc3F)cn2c1 [Compound 305] | 112 | 269 | 0.163 | 499 |  |  |  |  |  |
| Cc1nc(C)c(C(=O)Nc2ccc(F)c(-c3cn4cc(NC(=O)[C@](C)(O)C(F)(F)F)cnc4n3)c2)o1 [Compound 163] | 830 | 4450 | 0.399 | 10900 |  |  |  |  |  |
| CC(C)(C)OC(=O)N1CCOCC1C(=O)Nc1ccc(F)c(-c2cn3cc(C4CC4)cnc3n2)c1 (centres unmarked) [Compound 603] |  |  |  |  | 17800 | 12600 |  | 5840 | 8.17 |
| CC(C)OC(=O)Nc1cnc2nc(-c3cc(NC(=O)[C@H](N)c4ccccc4)ccc3F)cn2c1 [Compound 85] | > 25000 | 15200 | 32.7 | 10800 |  |  |  |  |  |
| O=C(Nc1ccc(F)c(-c2cn3cc(-c4cccnc4)cnc3n2)c1)N1CC(F)(F)C1 [Compound 402] |  |  |  |  | 69 | 285 |  | 251 | 0.011 |
| CNc1cnc2nc(-c3cc(NC(=O)c4oc(C)nc4C)ccc3F)cn2c1 [Compound 212] | 1120 | 4150 | 1.01 | 1300 |  |  |  |  |  |
| Cc1cccnc1-c1cnc2nc(-c3cc(N)ccc3F)cn2c1 [Compound 594, 4-fluoro-3-(6-(3-methylpyridin-2-yl)imidazo[1,2-a]pyrimidin-2-yl)aniline] |  |  |  |  | > 25000 | > 32800 |  | > 19900 | > 50 |
| Cc1nc(C)c(C(=O)Nc2ccc(F)c(-c3cn4cc(NC(=O)C5CCCO5)cnc4n3)c2)o1 (centres unmarked) [Compound 149] | 241 | 617 | 0.516 | 1880 |  |  |  |  |  |
| COC(=O)c1cnc2nc(-c3cc(NC(=O)c4oc(C)nc4C)ccc3F)cn2c1 [Compound 548, methyl 2-(5-(2,4-dimethyloxazole-5-carboxamido)-2-fluorophenyl)imidazo[1,2-a]pyrimidine-6-carboxylate] |  |  |  |  | 651 | 1070 |  | 539 | 0.518 |
| Cc1nc(C)c(C(=O)Nc2ccc(F)c(-c3nc4ncc(-c5ccccc5)cn4c3F)c2)o1 [Compound 338] | 47 | 101 | 0.04 | 18 |  |  |  |  |  |

Source: patent publication US20160045505A1, “COMPOUNDS AND COMPOSITIONS FOR THE TREATMENT OF PARASITIC DISEASES” (NOVARTIS AG, priority 2013, published 2016)
